The text below walks through data of ChEMBL document CHEMBL3351497, “Structure Activity Relationships of αv Integrin Antagonists for Pulmonary Fibrosis by Variation in Aryl Substituents” (ACS Med Chem Lett, 2014).

Data set [1] addresses T1, Integrin alpha-V/beta-6 (Homo sapiens, UniProt P06756+P18564). Description: Inhibition of integrin alphavbeta6 (unknown origin) by Merck AG cell assay. It is filed as cell-based.
The target in data set [2] is T1, Integrin alpha-V/beta-6. Description: Inhibition of integrin alphavbeta6 (unknown origin)-mediated K562 cell adhesion to LAPb1 coated surface by fluorescence analysis. The format is cell-based.
Data set [3] concerns the target T2, Integrin alpha-V/beta-3 (Homo sapiens, UniProt P05106+P06756). The experiment in a line: Inhibition of integrin alphavbeta3 (unknown origin) by Merck binding assay. It is filed as protein-complex assay.
Data set [4] deals with K562. Description: Selectivity ratio of IC50 for integrin alphavbeta8 (unknown origin)-mediated K562 cell adhesion to LAPb1 coated surface to IC50 for integrin alphavbeta3 (unknown origin)-mediated K562 cell adhesion to LAPb1 coated surface. It is filed as cell-based. Particulars: Homo sapiens.
The subject of data set [5] is K562. The experiment in a line: Selectivity ratio of IC50 for integrin alphavbeta6 (unknown origin)-mediated K562 cell adhesion to LAPb1 coated surface to IC50 for integrin alphavbeta3 (unknown origin)-mediated K562 cell adhesion to LAPb1 coated surface. Particulars: Homo sapiens. The format is cell-based.
In another data set the target is Integrin alpha-V/beta-5 (Homo sapiens, UniProt P06756+P18084). Description: Inhibition of integrin alphavbeta5 (unknown origin)-mediated K562 cell adhesion to vitronectin coated surface by fluorescence analysis. It is filed as cell-based.
Integrin alpha-V/beta-5, sequence (P06756 31-889 limits assumed): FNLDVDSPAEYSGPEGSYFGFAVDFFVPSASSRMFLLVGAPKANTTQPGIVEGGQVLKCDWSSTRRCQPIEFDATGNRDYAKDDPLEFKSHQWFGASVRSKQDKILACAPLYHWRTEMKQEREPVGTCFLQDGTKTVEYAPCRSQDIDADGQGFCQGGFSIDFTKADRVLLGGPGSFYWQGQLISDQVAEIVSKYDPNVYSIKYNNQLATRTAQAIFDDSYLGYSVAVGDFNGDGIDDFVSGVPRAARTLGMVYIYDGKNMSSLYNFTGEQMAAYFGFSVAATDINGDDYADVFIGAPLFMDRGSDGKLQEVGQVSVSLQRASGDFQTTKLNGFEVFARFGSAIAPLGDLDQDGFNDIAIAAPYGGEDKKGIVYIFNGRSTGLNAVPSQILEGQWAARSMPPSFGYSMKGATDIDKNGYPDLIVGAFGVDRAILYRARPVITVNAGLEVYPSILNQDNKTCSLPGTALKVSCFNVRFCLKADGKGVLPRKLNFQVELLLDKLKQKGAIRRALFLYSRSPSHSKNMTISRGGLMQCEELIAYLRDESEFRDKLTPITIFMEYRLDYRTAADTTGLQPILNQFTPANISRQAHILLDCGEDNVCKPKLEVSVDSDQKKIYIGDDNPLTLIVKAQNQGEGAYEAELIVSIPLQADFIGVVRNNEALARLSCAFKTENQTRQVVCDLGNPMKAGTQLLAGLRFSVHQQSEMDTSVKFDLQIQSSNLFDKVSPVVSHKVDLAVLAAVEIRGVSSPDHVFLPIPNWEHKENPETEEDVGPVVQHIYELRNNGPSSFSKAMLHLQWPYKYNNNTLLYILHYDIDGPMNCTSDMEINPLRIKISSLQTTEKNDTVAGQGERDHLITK
Integrin alpha-V/beta-5, sequence (P06756 891-1048 limits assumed): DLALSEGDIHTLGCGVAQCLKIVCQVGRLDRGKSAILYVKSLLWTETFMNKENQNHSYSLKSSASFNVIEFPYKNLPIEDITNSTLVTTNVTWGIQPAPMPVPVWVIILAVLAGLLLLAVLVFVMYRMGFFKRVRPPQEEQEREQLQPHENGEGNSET
Integrin alpha-V/beta-5, sequence (P18084 24-799 limits assumed): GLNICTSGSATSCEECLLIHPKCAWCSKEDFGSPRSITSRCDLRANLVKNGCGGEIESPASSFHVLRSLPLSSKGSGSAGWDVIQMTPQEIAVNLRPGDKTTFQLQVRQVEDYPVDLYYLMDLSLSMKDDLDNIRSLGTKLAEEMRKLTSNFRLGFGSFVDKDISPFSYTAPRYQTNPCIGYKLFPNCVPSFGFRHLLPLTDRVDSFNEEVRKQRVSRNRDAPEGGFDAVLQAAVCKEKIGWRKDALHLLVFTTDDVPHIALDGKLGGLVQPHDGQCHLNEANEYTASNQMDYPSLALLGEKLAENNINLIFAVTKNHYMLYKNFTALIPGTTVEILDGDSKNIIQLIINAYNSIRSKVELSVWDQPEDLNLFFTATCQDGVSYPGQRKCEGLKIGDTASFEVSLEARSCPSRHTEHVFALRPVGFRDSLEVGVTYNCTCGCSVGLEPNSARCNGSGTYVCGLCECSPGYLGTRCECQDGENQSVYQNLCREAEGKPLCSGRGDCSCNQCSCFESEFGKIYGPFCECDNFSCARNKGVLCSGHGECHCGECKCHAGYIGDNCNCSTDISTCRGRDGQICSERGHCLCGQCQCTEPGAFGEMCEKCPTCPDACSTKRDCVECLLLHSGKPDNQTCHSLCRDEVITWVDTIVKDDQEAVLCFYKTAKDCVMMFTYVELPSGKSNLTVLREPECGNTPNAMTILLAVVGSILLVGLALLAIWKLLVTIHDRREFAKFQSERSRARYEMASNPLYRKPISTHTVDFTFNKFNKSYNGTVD
Data set [6] in a line: Lipophilicity, log D of the compound by HPLC chromatographic method. The format is physicochemical.
Data set [7] relates to K562. Description: Selectivity ratio of IC50 for integrin alphavbeta6 (unknown origin)-mediated K562 cell adhesion to LAPb1 coated surface to IC50 for integrin alphavbeta5 (unknown origin)-mediated K562 cell adhesion to vitronectin coated surface. The format is cell-based. The following applies: Homo sapiens.
The subject of data set [8] is K562. Description: Selectivity ratio of IC50 for integrin alphavbeta8 (unknown origin)-mediated K562 cell adhesion to LAPb1 coated surface to IC50 for integrin alphavbeta5 (unknown origin)-mediated K562 cell adhesion to vitronectin coated surface. The format is cell-based. The following applies: Homo sapiens.
Data set [9] addresses T2, Integrin alpha-V/beta-3. Description: Inhibition of integrin alphavbeta3 (unknown origin)-mediated K562 cell adhesion to LAPb1 coated surface by fluorescence analysis. It is filed as cell-based.
The target in another data set is Integrin alpha-V/beta-8 (Homo sapiens, UniProt P06756+P26012). The experiment in a line: Inhibition of integrin alphavbeta8 (unknown origin)-mediated K562 cell adhesion to LAPb1 coated surface by fluorescence analysis. The format is cell-based.
Integrin alpha-V/beta-8, sequence (P06756 31-889 limits assumed): as the sequence (P06756 31-889 limits assumed) above
Integrin alpha-V/beta-8, sequence (P06756 891-1048 limits assumed): as the sequence (P06756 891-1048 limits assumed) above
Integrin alpha-V/beta-8, sequence (P26012 43-769 limits assumed): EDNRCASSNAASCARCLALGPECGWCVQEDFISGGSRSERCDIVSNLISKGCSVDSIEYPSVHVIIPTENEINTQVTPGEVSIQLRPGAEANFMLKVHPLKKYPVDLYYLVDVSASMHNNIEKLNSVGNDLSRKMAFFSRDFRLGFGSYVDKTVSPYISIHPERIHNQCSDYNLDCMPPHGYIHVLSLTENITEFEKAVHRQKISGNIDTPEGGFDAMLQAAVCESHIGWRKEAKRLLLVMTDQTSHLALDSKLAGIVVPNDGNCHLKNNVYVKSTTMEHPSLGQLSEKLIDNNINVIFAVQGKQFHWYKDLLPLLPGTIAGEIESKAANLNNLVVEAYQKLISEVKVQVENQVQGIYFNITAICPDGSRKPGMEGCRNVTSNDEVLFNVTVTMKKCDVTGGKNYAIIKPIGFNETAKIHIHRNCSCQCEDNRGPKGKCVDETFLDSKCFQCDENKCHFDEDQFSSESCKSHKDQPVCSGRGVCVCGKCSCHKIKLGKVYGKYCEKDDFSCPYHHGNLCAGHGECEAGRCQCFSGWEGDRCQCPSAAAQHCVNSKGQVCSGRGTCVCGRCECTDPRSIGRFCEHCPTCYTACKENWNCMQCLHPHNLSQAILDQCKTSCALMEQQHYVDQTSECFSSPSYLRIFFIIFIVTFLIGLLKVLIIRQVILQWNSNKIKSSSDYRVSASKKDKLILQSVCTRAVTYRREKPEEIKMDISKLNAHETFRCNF

T2 sequence (P05106 27-788 limits assumed): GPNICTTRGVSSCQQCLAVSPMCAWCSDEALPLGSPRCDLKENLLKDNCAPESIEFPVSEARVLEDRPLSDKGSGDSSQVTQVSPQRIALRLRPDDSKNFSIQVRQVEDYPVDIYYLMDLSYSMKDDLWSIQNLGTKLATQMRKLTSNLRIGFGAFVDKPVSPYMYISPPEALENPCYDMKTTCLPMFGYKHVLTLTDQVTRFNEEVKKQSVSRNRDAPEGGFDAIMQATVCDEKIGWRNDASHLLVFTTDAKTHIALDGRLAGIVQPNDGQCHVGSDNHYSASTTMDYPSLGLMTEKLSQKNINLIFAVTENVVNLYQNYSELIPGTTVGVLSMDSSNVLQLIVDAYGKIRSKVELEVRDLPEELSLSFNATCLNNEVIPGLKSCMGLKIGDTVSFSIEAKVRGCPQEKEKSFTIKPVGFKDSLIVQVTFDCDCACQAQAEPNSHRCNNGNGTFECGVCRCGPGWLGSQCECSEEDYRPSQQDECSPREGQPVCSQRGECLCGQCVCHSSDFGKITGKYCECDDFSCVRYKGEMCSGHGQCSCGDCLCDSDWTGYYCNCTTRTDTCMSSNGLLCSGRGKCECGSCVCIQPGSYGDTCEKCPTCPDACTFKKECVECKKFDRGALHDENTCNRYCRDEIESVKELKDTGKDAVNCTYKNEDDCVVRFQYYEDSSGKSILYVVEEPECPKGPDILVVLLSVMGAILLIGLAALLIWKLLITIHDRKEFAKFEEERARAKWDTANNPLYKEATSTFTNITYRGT
T2 sequence (P06756 31-889 limits assumed): as the sequence (P06756 31-889 limits assumed) above
T2 sequence (P06756 891-1048 limits assumed): as the sequence (P06756 891-1048 limits assumed) above
T1 sequence (P06756 31-889 limits assumed): as the sequence (P06756 31-889 limits assumed) above
T1 sequence (P06756 891-1048 limits assumed): as the sequence (P06756 891-1048 limits assumed) above
T1 sequence (P18564 22-788 limits assumed): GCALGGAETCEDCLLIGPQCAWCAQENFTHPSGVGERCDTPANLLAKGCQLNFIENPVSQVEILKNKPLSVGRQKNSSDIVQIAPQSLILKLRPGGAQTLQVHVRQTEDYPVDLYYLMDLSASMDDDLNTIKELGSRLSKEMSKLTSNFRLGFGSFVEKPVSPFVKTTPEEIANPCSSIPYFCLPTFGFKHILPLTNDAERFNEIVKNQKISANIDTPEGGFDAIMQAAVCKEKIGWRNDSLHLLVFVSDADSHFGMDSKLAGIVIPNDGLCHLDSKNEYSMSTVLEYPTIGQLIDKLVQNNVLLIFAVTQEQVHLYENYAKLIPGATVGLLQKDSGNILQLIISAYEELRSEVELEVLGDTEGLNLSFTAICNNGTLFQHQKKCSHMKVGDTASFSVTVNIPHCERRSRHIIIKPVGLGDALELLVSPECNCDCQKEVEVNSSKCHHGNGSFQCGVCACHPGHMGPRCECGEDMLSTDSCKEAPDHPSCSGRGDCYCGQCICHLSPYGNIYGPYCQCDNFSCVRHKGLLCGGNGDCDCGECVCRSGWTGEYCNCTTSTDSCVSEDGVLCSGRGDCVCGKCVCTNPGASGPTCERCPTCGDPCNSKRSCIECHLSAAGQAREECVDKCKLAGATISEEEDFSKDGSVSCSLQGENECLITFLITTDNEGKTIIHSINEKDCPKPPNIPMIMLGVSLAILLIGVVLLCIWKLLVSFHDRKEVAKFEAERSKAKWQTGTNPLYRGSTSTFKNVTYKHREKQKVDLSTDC

For the molecule `O=C(O)C[C@H](NC(=O)C(COCc1ccccc1)NC(=O)CCCCNc1ccccn1)c1cc(Cl)cc(Cl)c1` (some centres undefined), the IC50 on Integrin alpha-V/beta-6 [1] was 0.2 µM; at Integrin alpha-V/beta-6 [2], 1 µM.

Consider `O=C(O)CC(NC(=O)CCCCc1ccc2c(n1)NCCC2)c1cccc(F)c1` (racemic), for which the IC50 is 0.023 µM on Integrin alpha-V/beta-3 [3]; 0.0158 µM against Integrin alpha-V/beta-5; 0.794 µM at Integrin alpha-V/beta-6 [2]; 0.0316 µM against Integrin alpha-V/beta-3 [9]; 1.58 µM at Integrin alpha-V/beta-8. For the same molecule, the Ratio IC50 in the data set on K562 [4], in the data set on K562 [5], in the data set with K562 [7] and in the data set on K562 [8] was 10 in each case. For the same molecule, the chromatographic logD in data set [6] amounted to 1.92.

`COc1ccc(C(CC(=O)O)NC(=O)CCCCc2ccc3c(n2)NCCC3)cc1` (racemic): the Ratio IC50 in the data set with K562 [4], in the data set on K562 [5], in the data set with K562 [7] and with K562 [8] was 10 each time. In addition, the IC50 was 0.0501 µM against Integrin alpha-V/beta-5, 0.501 µM on Integrin alpha-V/beta-6 [2], 0.0251 µM at Integrin alpha-V/beta-3 [9] and 0.501 µM against Integrin alpha-V/beta-8. This molecule registered a chromatographic logD in data set [6] of 1.64.

For `O=C(O)CC(NC(=O)CCCCc1ccc2c(n1)NCCC2)c1ccccc1` (racemic), the Ratio IC50 with K562 [4], in the data set with K562 [5], in the data set on K562 [7] and in the data set with K562 [8] was 10 each time. Further, the IC50 is 0.0794 µM at Integrin alpha-V/beta-5, 2 µM against Integrin alpha-V/beta-6 [2], 0.1 µM against Integrin alpha-V/beta-3 [9] and 0.794 µM on Integrin alpha-V/beta-8. This molecule also had a chromatographic logD in [6] of 1.56.

In the case of `COc1cccc(C(CC(=O)O)NC(=O)CCCCc2ccc3c(n2)NCCC3)c1` (racemic), the Ratio IC50 in the data set with K562 [4], with K562 [5], in the data set with K562 [7] and in the data set on K562 [8] was 10 in each case. The IC50 against Integrin alpha-V/beta-5 is 0.0631 µM; against Integrin alpha-V/beta-6 [2], 0.316 µM; at Integrin alpha-V/beta-3 [9] it was 0.0398 µM; on Integrin alpha-V/beta-8 it was 0.501 µM. For the same molecule, in data set [6], the chromatographic logD was determined as 1.66.
